Measured values as given in patent publication US10815254B2, “Biflavone-zinc complex, preparation method and application thereof” (NANJING FORESTRY UNIVERSITY, priority 2017, dated 2020).

What was measured:
[1] = ABTS method, ABTS+. free radical scavenging; settings: 25° C., 5 min, 730 nm, from linear equation of scavenging rate vs concentration; read-out: IC50 for scavenging ABTS^+. free radicals
Procedure: Determination of […]. free radical ion scavenging capacity of the blank sample: at 25° C., 2.9 mL ABTS^+. free radical ion working solution was added into a 10 mL sample tube, 100 μL DMSO was added, after reacting for 5 min, the UV-vis spectrum was measured, and the absorption intensity A0 at 730 nm was recorded.
Determination of ABTS^+. free radical ion scavenging capacity of the samples: at 25° C., 2.9 mL ABTS^+. free radical ion working solution was added into a 10 mL sample tube, 100 μL samples of different concentrations that were dissolved in DMSO were added, after reacting for 5 min, the UV-vis spectrum was measured, and the absorption intensity A1 at 730 nm was recorded, and the ABTS^+. free radical ion scavenging rate was calculated according to Formula 4.
The ABTS^+. free radical scavenging capacities of the Ame and the Ame-Zn complex are concentration dependent. Within a certain range, the scavenging rate is linear with the concentration. The curve of the scavenging rate and the concentration (c) is plotted in the present invention to obtain a corresponding linear equation, and the maximum half-inhibitory concentration (IC50 value) is calculated.

herring sperm DNA (fDNA) = experiment: Interaction with fDNA by UV-vis spectroscopy, fluorescence spectroscopy and viscosity method; format: binding; settings: UV-vis, fluorescence (fDNA-EB system), viscosity
Description: UV-vis spectroscopy, fluorescence spectroscopy and viscosity method are used to study the interaction between the Ame/Ame-Zn complex and herring sperm DNA (fDNA) to further reveal the mechanism of antitumor activity, the obtained spectra are shown in FIGS. 7-11. […] Thereby, it can be speculated that the mechanism of antitumor activity of the Ame and its complex may be that Ame or the complex thereof enters the interior of the cell and intercalates with the DNA strand to cause apoptosis. Since the interaction of the complex with DNA is stronger than of the Ame, the antitumor activity thereof is also stronger than of the Ame.

[2] = Pyrogallol auto-oxidation method, O2-. free radical scavenging; settings: Tris-HCl pH 8.20, 25° C., 322 nm, read-out: IC50 to scavenge O2^−. free radical
Procedure: The free radical scavenging effects of the Ame and the Ame-Zn complex were studied by pyrogallol auto-oxidation method and ABTS method with the following steps:
(1) Pyrogallol Auto-Oxidation Method
Determination of auto-oxidation rate V0 of pyrogallol: 2 mL Tris-HCl buffer (pH=8.20) was added to a 10 mL sample tube at 25° C., 100 μL DMSO was added as a control, after adding 0.8 mL distilled water, 0.2 mL pyrogallol solution having a concentration of 2 mmol·L^−1 was added, the mixture was poured into a cuvette after mixing uniformly, the absorbance at 322 nm was measured with pure water as a blank, the A value was recorded every 10 s for a total of 4 min, linear regression was performed with t as the abscissa, and A as the ordinate, straight line slope thereof is V0, and the measurement was performed for three times to obtain an average value. […]

IC50 [1]: 20.7 µM | IC50 [2]: 23.3 µM
SMILES: O=c1cc(-c2ccc(O)c(-c3c(O)cc(O)c4c(=O)cc(-c5ccc(O)cc5)oc34)c2)oc2cc(O)cc(O)c12 [Ame, amentoflavone]
manner of interaction with fDNA (herring sperm DNA (fDNA)): intercalation manner
